This is an account of results in ChEMBL document CHEMBL5678818, “Discovery of potent SOS1 inhibitors that block RAS activation via disruption of the RAS-SOS1 interaction” (Proc Natl Acad Sci U S A, 2019).

Experiment [1] deals with Tyrosine-protein kinase ABL1 (Homo sapiens), P00519 [T315I]. The experiment is described as follows: Inhibition of phosphorylated ABL1 T315I mutant (unknown origin) assessed as residual activity at 100 nM by KINOMEscan analysis relative to control.
Experiment [2] deals with T1, Inhibitor of nuclear factor kappa-B kinase subunit epsilon (Homo sapiens) (UniProt Q14164).
T1 sequence (whole entry): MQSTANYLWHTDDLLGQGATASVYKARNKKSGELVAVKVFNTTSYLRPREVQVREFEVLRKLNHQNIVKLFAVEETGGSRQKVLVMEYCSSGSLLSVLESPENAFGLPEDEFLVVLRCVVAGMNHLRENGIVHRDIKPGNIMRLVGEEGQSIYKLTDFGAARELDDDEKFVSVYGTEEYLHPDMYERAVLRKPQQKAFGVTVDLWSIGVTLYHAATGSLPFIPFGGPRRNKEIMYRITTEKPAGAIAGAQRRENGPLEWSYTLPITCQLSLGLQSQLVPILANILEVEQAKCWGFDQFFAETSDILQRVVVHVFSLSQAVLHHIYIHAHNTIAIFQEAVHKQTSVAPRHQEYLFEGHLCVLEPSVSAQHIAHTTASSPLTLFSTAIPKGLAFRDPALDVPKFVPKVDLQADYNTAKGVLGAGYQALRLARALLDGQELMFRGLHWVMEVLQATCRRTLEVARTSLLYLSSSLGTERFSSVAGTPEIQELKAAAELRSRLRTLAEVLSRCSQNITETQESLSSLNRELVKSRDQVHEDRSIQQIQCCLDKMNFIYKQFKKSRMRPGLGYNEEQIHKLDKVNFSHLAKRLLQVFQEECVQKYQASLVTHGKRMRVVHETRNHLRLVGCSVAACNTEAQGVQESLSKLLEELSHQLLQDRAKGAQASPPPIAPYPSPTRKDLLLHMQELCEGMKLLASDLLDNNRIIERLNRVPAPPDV
The experiment is described as follows: Inhibition of IKK-epsilon (unknown origin) assessed as residual activity at 100 nM by KINOMEscan analysis relative to control.

Experiment [3] deals with T2, Dual specificity mitogen-activated protein kinase kinase 4 (Homo sapiens) (UniProt P45985).
T2 sequence (whole entry): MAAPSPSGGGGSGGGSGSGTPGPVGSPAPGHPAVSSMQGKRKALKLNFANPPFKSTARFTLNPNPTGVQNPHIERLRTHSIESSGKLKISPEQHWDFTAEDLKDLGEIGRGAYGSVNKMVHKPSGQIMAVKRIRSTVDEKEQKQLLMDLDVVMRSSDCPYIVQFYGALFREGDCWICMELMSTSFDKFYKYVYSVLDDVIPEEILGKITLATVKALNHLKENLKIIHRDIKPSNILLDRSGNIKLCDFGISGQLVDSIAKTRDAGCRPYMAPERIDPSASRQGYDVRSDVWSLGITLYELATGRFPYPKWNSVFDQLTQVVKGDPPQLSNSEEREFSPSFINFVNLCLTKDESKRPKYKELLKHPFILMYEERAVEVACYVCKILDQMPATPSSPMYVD
As to the kind of experiment: Inhibition of MEK4 (unknown origin) assessed as residual activity at 100 nM by KINOMEscan analysis relative to control.

The target in experiment [4] is Death-associated protein kinase 3 (Homo sapiens) (UniProt O43293). As to the kind of experiment: Inhibition of DAPK3 (unknown origin) assessed as residual activity at 100 nM by KINOMEscan analysis relative to control.
Experiment [5] concerns the target Activin receptor type-1-like (Homo sapiens) (UniProt P37023). As to the kind of experiment: Inhibition of ACVRL1 (unknown origin) assessed as residual activity at 100 nM by KINOMEscan analysis relative to control.
For experiment [6], the target named is Cyclin-dependent kinase 9 (Homo sapiens) (UniProt P50750). As to the kind of experiment: Inhibition of CDK9 (unknown origin) assessed as residual activity at 100 nM by KINOMEscan analysis relative to control.
The test system of experiment [7] is Receptor-type tyrosine-protein kinase FLT3 (Homo sapiens), P36888 [D835Y]. As to the kind of experiment: Inhibition of FLT3 D835Y mutant (unknown origin) assessed as residual activity at 100 nM by KINOMEscan analysis relative to control.
Experiment [8] addresses T3, Ephrin type-A receptor 8 (Homo sapiens) (UniProt P29322).
T3 sequence (whole entry): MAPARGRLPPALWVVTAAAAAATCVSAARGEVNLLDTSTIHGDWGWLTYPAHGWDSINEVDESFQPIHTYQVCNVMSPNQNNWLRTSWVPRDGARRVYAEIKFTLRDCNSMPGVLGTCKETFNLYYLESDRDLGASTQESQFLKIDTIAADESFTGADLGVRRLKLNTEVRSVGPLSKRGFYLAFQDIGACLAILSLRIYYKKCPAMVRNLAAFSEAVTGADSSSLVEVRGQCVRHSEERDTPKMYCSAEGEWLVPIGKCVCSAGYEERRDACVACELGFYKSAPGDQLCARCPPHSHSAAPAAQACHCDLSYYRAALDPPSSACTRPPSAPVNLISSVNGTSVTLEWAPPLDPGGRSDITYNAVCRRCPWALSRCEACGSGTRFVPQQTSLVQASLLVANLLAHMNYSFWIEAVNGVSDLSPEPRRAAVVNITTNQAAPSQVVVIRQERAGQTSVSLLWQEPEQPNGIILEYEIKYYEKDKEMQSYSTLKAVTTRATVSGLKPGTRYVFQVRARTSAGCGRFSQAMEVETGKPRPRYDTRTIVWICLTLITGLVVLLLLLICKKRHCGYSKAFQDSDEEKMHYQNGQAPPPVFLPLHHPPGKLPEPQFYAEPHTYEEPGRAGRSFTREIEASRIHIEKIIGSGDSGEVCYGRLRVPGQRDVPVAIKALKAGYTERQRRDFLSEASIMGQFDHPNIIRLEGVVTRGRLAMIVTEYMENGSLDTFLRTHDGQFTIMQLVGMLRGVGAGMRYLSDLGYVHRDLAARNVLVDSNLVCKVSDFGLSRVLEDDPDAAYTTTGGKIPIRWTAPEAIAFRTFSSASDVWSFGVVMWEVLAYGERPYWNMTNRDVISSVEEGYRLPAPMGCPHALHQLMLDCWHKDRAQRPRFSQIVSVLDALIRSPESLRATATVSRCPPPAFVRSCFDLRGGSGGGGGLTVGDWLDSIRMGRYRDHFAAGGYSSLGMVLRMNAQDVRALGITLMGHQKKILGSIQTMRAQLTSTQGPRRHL
As to the kind of experiment: Inhibition of EPHA8 (unknown origin) assessed as residual activity at 100 nM by KINOMEscan analysis relative to control.

The species entered for the next experiment is Homo sapiens. As to the kind of experiment: Inhibition of JNK3 (unknown origin) assessed as residual activity at 100 nM by KINOMEscan analysis relative to control.
Experiment [9] concerns Epidermal growth factor receptor (Homo sapiens), P00533 [L858R,T790M]. As to the kind of experiment: Inhibition of EGFR L858R/T790M mutant (unknown origin) assessed as residual activity at 100 nM by KINOMEscan analysis relative to control.
The target of experiment [10] is Beta-adrenergic receptor kinase 1 (Homo sapiens) (UniProt P25098). The experiment is described as follows: Inhibition of GRK2 (unknown origin) assessed as residual activity at 1000 nM by KINOMEscan analysis relative to control.
Beta-adrenergic receptor kinase 1 (Homo sapiens), sequence (P25098 whole entry): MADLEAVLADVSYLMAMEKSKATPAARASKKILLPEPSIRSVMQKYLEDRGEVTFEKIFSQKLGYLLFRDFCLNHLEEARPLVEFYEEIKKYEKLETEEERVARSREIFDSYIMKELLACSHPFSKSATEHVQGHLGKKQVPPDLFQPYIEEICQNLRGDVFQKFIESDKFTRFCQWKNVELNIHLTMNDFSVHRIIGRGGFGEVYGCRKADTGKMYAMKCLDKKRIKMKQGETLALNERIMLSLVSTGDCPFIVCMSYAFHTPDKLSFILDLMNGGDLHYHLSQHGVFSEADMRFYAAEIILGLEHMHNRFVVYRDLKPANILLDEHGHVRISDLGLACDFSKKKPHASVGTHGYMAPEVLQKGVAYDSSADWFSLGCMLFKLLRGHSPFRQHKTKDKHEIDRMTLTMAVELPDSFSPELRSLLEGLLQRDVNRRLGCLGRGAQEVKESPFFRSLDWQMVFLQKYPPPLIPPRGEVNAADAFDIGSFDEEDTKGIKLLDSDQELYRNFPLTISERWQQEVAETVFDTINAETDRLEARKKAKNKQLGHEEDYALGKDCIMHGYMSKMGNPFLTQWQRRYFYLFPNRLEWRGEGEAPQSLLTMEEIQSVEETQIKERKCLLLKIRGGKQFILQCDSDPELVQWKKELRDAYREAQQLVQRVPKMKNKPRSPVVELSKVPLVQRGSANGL

Cyclin-dependent kinase 9 (Homo sapiens), sequence (P50750 whole entry): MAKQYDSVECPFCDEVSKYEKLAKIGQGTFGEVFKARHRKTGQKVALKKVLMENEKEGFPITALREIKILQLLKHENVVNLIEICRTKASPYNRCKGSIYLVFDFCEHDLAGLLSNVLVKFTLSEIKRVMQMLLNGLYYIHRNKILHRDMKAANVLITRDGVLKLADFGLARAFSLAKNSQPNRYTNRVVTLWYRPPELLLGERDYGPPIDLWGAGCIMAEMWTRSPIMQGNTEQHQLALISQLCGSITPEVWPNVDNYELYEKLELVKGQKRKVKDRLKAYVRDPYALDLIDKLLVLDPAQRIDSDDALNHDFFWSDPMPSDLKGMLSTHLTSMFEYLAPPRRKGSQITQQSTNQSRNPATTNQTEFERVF
Death-associated protein kinase 3 (Homo sapiens), sequence (O43293 whole entry, looked up): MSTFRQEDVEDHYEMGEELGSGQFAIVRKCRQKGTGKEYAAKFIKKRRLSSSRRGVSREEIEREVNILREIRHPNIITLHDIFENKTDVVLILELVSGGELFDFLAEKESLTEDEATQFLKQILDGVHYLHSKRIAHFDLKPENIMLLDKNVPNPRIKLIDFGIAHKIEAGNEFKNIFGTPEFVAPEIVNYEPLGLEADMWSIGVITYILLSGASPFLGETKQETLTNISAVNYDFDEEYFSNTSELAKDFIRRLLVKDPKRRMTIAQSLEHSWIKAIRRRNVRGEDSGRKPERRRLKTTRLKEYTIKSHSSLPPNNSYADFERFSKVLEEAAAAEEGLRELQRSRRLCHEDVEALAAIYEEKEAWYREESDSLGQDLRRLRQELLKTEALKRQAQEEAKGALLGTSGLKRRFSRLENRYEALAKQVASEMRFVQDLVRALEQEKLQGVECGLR
Activin receptor type-1-like (Homo sapiens), sequence (P37023 whole entry): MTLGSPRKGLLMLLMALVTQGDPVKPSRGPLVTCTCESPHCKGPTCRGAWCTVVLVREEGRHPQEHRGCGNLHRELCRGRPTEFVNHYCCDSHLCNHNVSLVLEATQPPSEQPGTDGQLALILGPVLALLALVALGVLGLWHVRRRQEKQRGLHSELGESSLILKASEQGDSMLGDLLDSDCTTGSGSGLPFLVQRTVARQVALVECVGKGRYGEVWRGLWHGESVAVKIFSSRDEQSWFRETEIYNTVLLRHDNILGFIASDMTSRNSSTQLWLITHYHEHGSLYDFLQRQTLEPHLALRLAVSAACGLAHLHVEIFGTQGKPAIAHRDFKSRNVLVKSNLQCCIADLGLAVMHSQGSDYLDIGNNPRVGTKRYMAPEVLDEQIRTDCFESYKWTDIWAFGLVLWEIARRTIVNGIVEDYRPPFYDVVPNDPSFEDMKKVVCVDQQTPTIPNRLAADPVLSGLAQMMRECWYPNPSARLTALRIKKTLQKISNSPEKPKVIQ

For the compound `COc1cc2ncnc(N[C@H](C)c3cccc4ccccc34)c2cc1OC`, the Activity in experiment [1] is 89%; in experiment [2], 100%; in [3], 93%; in [4], 100%; in experiment [5], 82%; in experiment [6], 89%. The Activity was determined as 98% in experiment [7], 75% in experiment [8], 77% in the experiment listed under Homo sapiens and 85% in experiment [9].

With `COc1cc2nc(C)nc(N[C@H](C)c3cccc(-c4cn[nH]c4)c3)c2cc1OC`, the Activity in [10] is 62%.
